Experimental data: patent US20230399312A1, “SUBSTITUTED PYRIMIDINES AND METHODS OF USE” (THERAVANCE BIOPHARMA R&D IP, LLC, priority 2020, published 2023)

Experiments:
[1] = target: T1, recombinant human ALK5 (TGF-βR1) protein (Homo sapiens, UniProt P36897); test: Biochemical ALK5 (TGF-βR1) assay to measure pKi (LANCE Ultra ULight kinase assay); settings: apparent pKi, converted from pIC50 by Cheng-Prusoff
T1 construct: purchased Life Technologies PR9075A
T1 sequence (P36897 34-503): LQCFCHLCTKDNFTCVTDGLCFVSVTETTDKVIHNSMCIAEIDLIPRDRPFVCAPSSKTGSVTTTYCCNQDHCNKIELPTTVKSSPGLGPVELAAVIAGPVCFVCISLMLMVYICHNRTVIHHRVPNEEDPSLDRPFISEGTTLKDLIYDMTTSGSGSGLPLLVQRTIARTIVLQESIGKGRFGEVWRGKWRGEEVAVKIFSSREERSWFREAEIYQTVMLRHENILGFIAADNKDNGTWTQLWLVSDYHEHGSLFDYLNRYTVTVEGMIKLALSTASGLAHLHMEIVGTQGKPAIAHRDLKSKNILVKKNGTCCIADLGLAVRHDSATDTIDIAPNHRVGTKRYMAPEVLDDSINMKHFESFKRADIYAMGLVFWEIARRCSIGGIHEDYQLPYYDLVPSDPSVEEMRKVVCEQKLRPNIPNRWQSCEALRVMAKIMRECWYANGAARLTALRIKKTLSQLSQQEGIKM
Method in brief: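 Enzyme preincubated with compound for 60 min at room temperature, then reacted with ATP (125 μM as 5× stock) for 60 min at 37 °C. Stopped with EDTA plus Eu-anti-phospho-Topoisomerase 2-alpha (Thr1342) antibody and read by TR-FRET at 665 nm. pIC50 from a 4-parameter fit, converted to pKi by Cheng-Prusoff.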

[2] = test system: TGF-β-stimulated SMAD3 phosphorylation in BEAS-2B cells; test: Cellular ALK5 potency assay, inhibition of TGF-β stimulated pSMAD3 formation in BEAS-2B cells; type: cell-based; settings: Homo sapiens, pSMAD3, TGF-β 10 ng/mL, read-out: BEAS2B pIC50 (converted)
Method in brief: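 Read-out is AlphaLISA detection of phospho-SMAD3 in lysates of BEAS-2B human lung epithelial cells. Cells are exposed to compound for 1 hour, then to 10 ng/mL TGF-β (final) for 30 minutes. Values are pIC50 from concentration–response curves.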

Ki [1] [nM] | SMILES | IC50 [2] [nM]
0.0398 to 0.316 | Cc1cccc(-c2nccc(Nc3ccnc(Nc4ccc(CN5C[C@@H](C)NC[C@@H]5C)cc4)n3)n2)n1 [Compound 344, N2-[4-[[(2S,5R)-2,5-dimethylpiperazin-1-yl]methyl]phenyl]-N4-[2-(6-methyl-2-pyridyl)pyrimidin-4-yl]pyrimidine-2,4-diamine] | 25.1 to 158
0.0398 to 0.316 | Cc1cccc(-c2nccc(Nc3ccnc(Nc4ccc(C5CCCNC5)cc4)n3)n2)n1 (stereo not shown) [Compound 374, N4-[2-(6-methyl-2-pyridyl)pyrimidin-4-yl]-N2-[4-(3-piperidyl)phenyl]pyrimidine-2,4-diamine] | 25.1 to 158
0.0398 to 0.316 | Cc1cccc(-c2nc(Nc3ccnc(Nc4ccc(N5CCNCC5)cc4)n3)cc(-c3c[nH]nn3)n2)n1 [Compound 1012, N4-[2-(6-methyl-2-pyridyl)-6-(1H-triazol-4-yl)pyrimidin-4-yl]-N2-(4-piperazin-1-ylphenyl)pyrimidine-2,4-diamine] | 1580 to 10000
0.0398 to 0.316 | Cc1cccc(-c2nccc(Nc3ccnc(Nc4ccc(CN5CCC[C@H](C(=O)O[C@@H]6CCN(C)C6)C5)cc4)n3)n2)n1 [Compound 486, [(3R)-1-methylpyrrolidin-3-yl] (3S)-1-[[4-[[4-[[2-(6-methyl-2-pyridyl)pyrimidin-4-yl]amino]pyrimidin-2-yl]amino]phenyl]methyl] piperidine-3-carboxylate] | 25.1 to 158
0.0398 to 0.316 | COC(=O)[C@@H]1CN(c2ccc(Nc3nccc(Nc4ccnc(-c5cccc(C)n5)n4)n3)cc2)CCN1 [Compound 307, methyl (2S)-4-[4-[[4-[[2-(6-methyl-2-pyridyl)pyrimidin-4-yl]amino]pyrimidin-2-yl]amino]phenyl]piperazine-2-carboxylate] | 25.1 to 158
0.0398 to 0.316 | Cc1cccc(-c2nccc(Nc3ccnc(Nc4csc(C(=O)OCCN5CCN6CCCC6C5)c4)n3)n2)n1 (stereo not shown) [Compound 599, 2-(3,4,6,7,8,8a-hexahydro-1H-pyrrolo[1,2-a]pyrazin-2-yl)ethyl 4-[[4-[[2-(6-methyl-2-pyridyl)pyrimidin-4-yl]amino]pyrimidin-2-yl]amino]thiophene-2-carboxylate] | 25.1 to 158
0.0398 to 0.316 | Cc1cccc(-c2nccc(Nc3ccnc(Nc4ccc(N5CCC(N6CCOCC6)CC5)cc4)n3)n2)n1 [Compound 397, N4-[2-(6-methyl-2-pyridyl)pyrimidin-4-yl]-N2-[4-(4-morpholino-1-piperidyl)phenyl]pyrimidine-2,4-diamine] | 25.1 to 158
0.0398 to 0.316 | COC(=O)C1CCCN(Cc2ccc(Nc3nccc(Nc4ccnc(-c5cccc(C)n5)n4)n3)cc2)C1 (stereo not shown) [Compound 516, methyl 1-[[4-[[4-[[2-(6-methyl-2-pyridyl)pyrimidin-4-yl]amino]pyrimidin-2-yl]amino]phenyl]methyl] piperidine-3-carboxylate] | 25.1 to 158
0.0398 to 0.316 | Cc1cccc(-c2nccc(Nc3ccnc(Nc4ccc(-c5cn6c(n5)CNCC6)cc4)n3)n2)n1 [Compound 232, N4-[2-(6-methyl-2-pyridyl)pyrimidin-4-yl]-N2-[4-(5,6,7,8-tetrahydroimidazo[1,2-a]pyrazin-2-yl)phenyl]pyrimidine-2,4-diamine] | 25.1 to 158
0.398 to 3.16 | Cc1cccc(-c2nccc(Nc3ccnc(Nc4nc(C(=O)O[C@@H]5CCN(C)C5)cs4)n3)n2)n1 [Compound 291, [(3R)-1-methylpyrrolidin-3-yl] 2-[[4-[[2-(6-methyl-2-pyridyl)pyrimidin-4-yl]amino]pyrimidin-2-yl]amino]thiazole-4-carboxylate] | 25.1 to 158

SMILES | Ki [1] [nM] | IC50 [2] [nM]
Cc1cccc(-c2nccc(Nc3ccnc(Nc4ccc(CN5CC6CCCC(C5)N6)cc4)n3)n2)n1 [Compound 177, N2-[4-(3,9-diazabicyclo[3.3.1]nonan-3-ylmethyl)phenyl]-N4-[2-(6-methyl-2-pyridyl)pyrimidin-4-yl]pyrimidine-2,4-diamine] | 0.0398 to 0.316 | 25.1 to 158
